According to ChEMBL document CHEMBL3616412, “Re-engineering nalidixic acid's chemical scaffold: A step towards the development of novel anti-tubercular and anti-bacterial leads for resistant pathogens” (2015):
≈ marks a conversion by molar mass, not a printed value.

Columns and labels:
[1] = tested on: Staphylococcus aureus; experiment: Antibacterial activity against Staphylococcus aureus at 10 ug/disk after 24 hrs by agar plate disk diffusion method; format: functional; settings: read-out: DIZ
[2] = tested on: Escherichia coli; experiment: Antibacterial activity against Escherichia coli at 10 ug/disk after 24 hrs by agar plate disk diffusion method; format: functional; settings: read-out: DIZ
[3] = tested on: Proteus vulgaris; experiment: Antibacterial activity against Proteus vulgaris at 10 ug/disk after 24 hrs by agar plate disk diffusion method; format: functional; settings: read-out: DIZ
[4] = tested on: Pseudomonas aeruginosa; experiment: Antibacterial activity against Pseudomonas aeruginosa at 10 ug/disk after 24 hrs by agar plate disk diffusion method; format: functional; settings: read-out: DIZ
[5] = tested on: Salmonella typhi; experiment: Antibacterial activity against Salmonella typhi at 10 ug/disk after 24 hrs by agar plate disk diffusion method; format: functional, Salmonella enterica subsp. enterica serovar Typhi; settings: Salmonella enterica, read-out: DIZ
[6] = tested on: Salmonella paratyphi; experiment: Antibacterial activity against Salmonella paratyphi at 10 ug/disk after 24 hrs by agar plate disk diffusion method; format: functional, Salmonella enterica subsp. enterica serovar Paratyphi A; settings: Salmonella enterica, read-out: DIZ
[7] = tested on: Mycobacterium tuberculosis; experiment: Antitubercular activity against Mycobacterium tuberculosis H37Rv ATCC 27294 after 5 days by micro alamar blue assay; format: functional
[8] = tested on: Staphylococcus aureus; experiment: Antibacterial activity against Staphylococcus aureus after 24 hrs by agar dilution method; format: functional
[9] = tested on: Staphylococcus aureus; experiment: Antibacterial activity against Staphylococcus aureus after 5 days by microdilution method; format: functional; settings: 120 h
[10] = tested on: Escherichia coli; experiment: Antibacterial activity against Escherichia coli after 24 hrs by agar dilution method; format: functional
[11] = tested on: Escherichia coli; experiment: Antibacterial activity against Escherichia coli after 5 days by microdilution method; format: functional; settings: 120 h
[12] = tested on: Proteus vulgaris; experiment: Antibacterial activity against Proteus vulgaris after 24 hrs by agar dilution method; format: functional
[13] = tested on: Proteus vulgaris; experiment: Antibacterial activity against Proteus vulgaris after 5 days by microdilution method; format: functional; settings: 120 h
[14] = tested on: Pseudomonas aeruginosa; experiment: Antibacterial activity against Pseudomonas aeruginosa after 24 hrs by agar dilution method; format: functional
[15] = tested on: Pseudomonas aeruginosa; experiment: Antibacterial activity against Pseudomonas aeruginosa after 5 days by microdilution method; format: functional; settings: 120 h
[16] = tested on: Salmonella typhi; experiment: Antibacterial activity against Salmonella typhi after 24 hrs by agar dilution method; format: functional, Salmonella enterica subsp. enterica serovar Typhi; settings: Salmonella enterica
[17] = tested on: Salmonella typhi; experiment: Antibacterial activity against Salmonella typhi after 5 days by microdilution method; format: functional, Salmonella enterica subsp. enterica serovar Typhi; settings: Salmonella enterica, 120 h
[18] = tested on: Salmonella paratyphi; experiment: Antibacterial activity against Salmonella paratyphi after 24 hrs by agar dilution method; format: functional, Salmonella enterica subsp. enterica serovar Paratyphi A; settings: Salmonella enterica
[19] = tested on: Salmonella paratyphi; experiment: Antibacterial activity against Salmonella paratyphi after 5 days by microdilution method; format: functional, Salmonella enterica subsp. enterica serovar Paratyphi A; settings: Salmonella enterica, 120 h

Row | SMILES | zone of inhibition at 10 µg/disc [1] [mm] | zone of inhibition at 10 µg/disc [2] [mm] | zone of inhibition at 10 µg/disc [3] [mm] | zone of inhibition at 10 µg/disc [4] [mm] | zone of inhibition at 10 µg/disc [5] [mm] | zone of inhibition at 10 µg/disc [6] [mm] | inhibition (INH) [7] [%] | MIC [8] [µg/mL] | MIC [9] [µg/mL] | MIC [10] [µg/mL] | MIC [11] [µg/mL] | MIC [12] [µg/mL] | MIC [13] [µg/mL] | MIC [14] [µg/mL] | MIC [15] [µg/mL] | MIC [16] [µg/mL] | MIC [17] [µg/mL] | MIC [18] [µg/mL] | MIC [19] [µg/mL]
1 | CCn1cc(-c2nn(-c3nc4ccccc4[nH]c3=O)c(=S)o2)c(=O)c2ccc(C)nc21 | 32 | 25 | 26 | 23 | 23 | 22 | 75 | 0.06 (≈ 0.139 µM) | 0.06 (≈ 0.139 µM) | 0.5 (≈ 1.16 µM) | 0.5 (≈ 1.16 µM) | 1 (≈ 2.31 µM) | 1 (≈ 2.31 µM) | 1 (≈ 2.31 µM) | 1 (≈ 2.31 µM) | 1 (≈ 2.31 µM) | 1 (≈ 2.31 µM) | 1 (≈ 2.31 µM) | 1 (≈ 2.31 µM)
2 | CC1(C)S[C@@H]2[C@H](NC(=O)[C@H](N)c3ccc(O)cc3)C(=O)N2[C@H]1C(=O)O [AMOXICILLIN] | 32 | 25 | 24 | 21 | 21 | 22 |  | 0.5 (≈ 1.37 µM) | 0.5 (≈ 1.37 µM) | 0.25 (≈ 0.684 µM) | 0.25 (≈ 0.684 µM) | 1 (≈ 2.74 µM) | 1 (≈ 2.74 µM) | 2 (≈ 5.47 µM) | 2 (≈ 5.47 µM) | 0.5 (≈ 1.37 µM) | 0.5 (≈ 1.37 µM) | 2 (≈ 5.47 µM) | 2 (≈ 5.47 µM)
3 | O=C(O)c1cn(C2CC2)c2cc(N3CCNCC3)c(F)cc2c1=O [CIPROFLOXACIN] | 30 | 28 | 33 | 23 | 26 | 25 |  | 0.12 (≈ 0.362 µM) | 0.12 (≈ 0.362 µM) |  |  | 0.25 (≈ 0.754 µM) | 0.25 (≈ 0.754 µM) |  |  | 0.12 (≈ 0.362 µM) | 0.12 (≈ 0.362 µM) | 0.25 (≈ 0.754 µM) | 0.25 (≈ 0.754 µM)
4 | NNC(=O)c1ccncc1 [ISONIAZID] |  |  |  |  |  |  | 100 |  |  |  |  |  |  |  |  |  |  |  | 
5 | CCn1cc(C(=O)O)c(=O)c2ccc(C)nc21 [NALIDIXIC ACID] | 27 | 26 | 25 | 22 | 25 | 24 | 63 | 0.12 (≈ 0.517 µM) | 0.12 (≈ 0.517 µM) | 0.25 (≈ 1.08 µM) | 0.25 (≈ 1.08 µM) | 0.25 (≈ 1.08 µM) | 0.25 (≈ 1.08 µM) | 1 (≈ 4.31 µM) | 1 (≈ 4.31 µM) | 1 (≈ 4.31 µM) | 1 (≈ 4.31 µM) | 1 (≈ 4.31 µM) | 1 (≈ 4.31 µM)
6 | CO[C@H]1/C=C/O[C@@]2(C)Oc3c(C)c(O)c4c(O)c(c(/C=N/N5CCN(C)CC5)c(O)c4c3C2=O)NC(=O)/C(C)=C\C=C\[C@H](C)[C@H](O)[C@@H](C)[C@@H](O)[C@@H](C)[C@H](OC(C)=O)[C@@H]1C [RIFAMPIN] |  |  |  |  |  |  | 98 |  |  |  |  |  |  |  |  |  |  |  | 
